Columns and labels:
Type in all cases: functional
Cancer cell lines [1] = assay: The concentration to cause 50% cancer cell lethality and the value is the mean value which was obtained from 60 cancer cell line assay
Cancer cell lines [2] = assay: concentration to inhibit 100%cancer cell growth and the value is the mean value which was obtained from 60 cancer cell line assay; settings: read-out: Log TGI (converted)
Cancer cell lines [3] = assay: concentration to inhibit 50%cancer cell growth and the value is the mean value which was obtained from 60 cancer cell line assay

SMILES | LC50 (Cancer cell lines [1]) [nM] | TGI (Cancer cell lines [2]) [nM] | GI50 (Cancer cell lines [3]) [nM]
O=C1C=C(N2CC2)C(=O)c2c1nc1n2CCC1 | > 100000 | > 100000 | > 100000
O=C1C(N2CC2)=CC(=O)c2c1nc1n2CCC1 | 5500 | 1350 | 363
CC(=O)OC1CCn2c1nc1c2C(=O)C=C(N2CC2)C1=O (configuration not stated) | 5250 | 1070 | 269
COC1=C(N2CC2)C(=O)c2nc3n(c2C1=O)CCC3 | 13500 | 2510 | 708
COC1=C(NC(C)=O)C(=O)c2nc3n(c2C1=O)CCC3OC(C)=O (configuration not stated) | 74100 | 38900 | 18600
CC(=O)NC1=C(C)C(=O)c2c(nc3n2CCC3)C1=O | 10700 | 3720 | 1450
CC1=C(N2CC2)C(=O)c2nc3n(c2C1=O)CCC3 | 2040 | 105 | 18.2
CC(=O)NC1=C(C)C(=O)c2c(nc3n2CCC3OC(C)=O)C1=O (configuration not stated) | 18600 | 4790 | 1580
CC(=O)OC1CCn2c1nc1c2C(=O)C(C)=C(N2CC2)C1=O (configuration not stated) | 245 | 31.6 | 12

From ChEMBL document CHEMBL1129455, “Chemistry of the pyrrolo[1,2-alpha]benzimidazole antitumor agents: influence of the 7-substituent on the ability to alkylate DNA and inhibit topoisomerase II” (1996)
